Consider 13 compounds from PubChem BioAssay (NCI).

Among the test systems are HOP-62 NSCLC; CCRF-CEM leukemia; RXF 393 renal; K-562 leukemia; SR leukemia; SW-620 colon; MCF7 breast; SF-539 CNS; KM12 colon; MALME-3M melanoma.
What all share (assay): NCI tumour cell line growth inhibition, 48 h

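48-hour exposure; five concentrations; linearly interpolated endpoints. TGI: concentration producing complete growth inhibition.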 Bounds are passed on as bounds.

For `c1ccc(/C(=N/Nc2ccccn2)c2ncccn2)cc1`, the TGI with HOP-62 NSCLC is more than 42.7 µM; in the assay with CCRF-CEM leukemia it was more than 100 µM; with RXF 393 renal, more than 100 µM; in the assay with K-562 leukemia, more than 39.8 µM; with SR leukemia, more than 27.5 µM; with SW-620 colon, more than 20.2 µM. Moreover, the TGI is more than 100 µM with MCF7 breast, 46 µM in the assay with SF-539 CNS, more than 53.8 µM in the assay on KM12 colon and 59.8 µM with MALME-3M melanoma.

As to `CC(=O)OC/C=C(/C=C/CNC1CCCCC1)OC(C)=O`, the TGI in the assay with HOP-62 NSCLC is 31.1 µM; in the assay with CCRF-CEM leukemia it was more than 100 µM; in the assay on RXF 393 renal, 32.5 µM; in the assay with K-562 leukemia, 32 µM; with SR leukemia it was 35.7 µM; with SW-620 colon, 29.8 µM. Moreover, the TGI was 66.9 µM in the assay with MCF7 breast, 24.2 µM with SF-539 CNS, 32.9 µM with KM12 colon and 32.9 µM in the assay with MALME-3M melanoma.

For `Cc1c2ncccc2cc2oc3ccccc3c(=O)c12`, the TGI with HOP-62 NSCLC, in the assay with CCRF-CEM leukemia, with RXF 393 renal, in the assay on K-562 leukemia, with SR leukemia and with SW-620 colon was more than 100 µM throughout. Besides, the TGI in the assay with MCF7 breast, in the assay on SF-539 CNS, with KM12 colon and with MALME-3M melanoma was more than 100 µM in each case.

On to `COc1cc(I)c2c3c1OC1C34CCN(C)C(C2)C4=CC(I)C1(OC)OC` (stereo not drawn), for which the TGI with HOP-62 NSCLC worked out at 46.3 µM; with CCRF-CEM leukemia, 26.8 µM; with RXF 393 renal, 38.2 µM; in the assay with K-562 leukemia, 61.8 µM; with SR leukemia it was 40.9 µM; in the assay with SW-620 colon, 52.2 µM. The TGI with MCF7 breast turned out to be 64.3 µM; in the assay on SF-539 CNS, 40.1 µM; in the assay on KM12 colon, 40 µM; in the assay on MALME-3M melanoma it was 47.1 µM.

As to `CCCCc1ccc(Nc2nc3c(ncn3COCCO)c(=O)[nH]2)cc1`, the TGI in the assay on HOP-62 NSCLC, with CCRF-CEM leukemia, in the assay on RXF 393 renal, in the assay with K-562 leukemia, with SR leukemia and in the assay on SW-620 colon was more than 100 µM throughout. Further, the TGI in the assay with MCF7 breast, with SF-539 CNS, in the assay with KM12 colon and in the assay with MALME-3M melanoma was more than 100 µM each time.

On to `Nc1ccc(S(=O)(=O)Nc2nc3ccccc3nc2N2CCCCC2)cc1`, for which the TGI in the assay with HOP-62 NSCLC, with CCRF-CEM leukemia, in the assay on RXF 393 renal, in the assay on K-562 leukemia, with SR leukemia and in the assay with SW-620 colon was more than 100 µM throughout. Further, the TGI in the assay on MCF7 breast, with SF-539 CNS, with KM12 colon and with MALME-3M melanoma was more than 100 µM each time.

`c1ccc2c3c(c(N4CCOCC4)nc2c1)CCCC3`: the TGI with HOP-62 NSCLC is more than 100 µM; with CCRF-CEM leukemia, more than 100 µM; in the assay on RXF 393 renal, 46.8 µM; in the assay on K-562 leukemia it was more than 100 µM; in the assay on SR leukemia it was more than 100 µM; in the assay with SW-620 colon, more than 100 µM. Also, the TGI with MCF7 breast is more than 100 µM; in the assay with SF-539 CNS, 61.4 µM; with KM12 colon it was more than 100 µM; in the assay with MALME-3M melanoma, more than 100 µM.

`COc1c(C)c2nc3ccccc3[nH]c2c2c(=O)ccnc12`: the TGI in the assay on HOP-62 NSCLC is more than 100 µM; in the assay with CCRF-CEM leukemia, more than 100 µM; in the assay on RXF 393 renal, 71.7 µM; in the assay with K-562 leukemia, more than 100 µM; in the assay with SR leukemia, more than 100 µM; in the assay with SW-620 colon, more than 100 µM. The TGI in the assay with MCF7 breast, in the assay with SF-539 CNS, with KM12 colon and in the assay on MALME-3M melanoma was more than 100 µM each time.

As to `COc1cc(CN2CCCCC2)cc2cc(C(=O)O)c(=O)oc12`, the TGI with HOP-62 NSCLC, in the assay with CCRF-CEM leukemia, with RXF 393 renal, with K-562 leukemia, with SR leukemia and in the assay on SW-620 colon was more than 100 µM each time. Further, the TGI in the assay on MCF7 breast, with SF-539 CNS, in the assay with KM12 colon and in the assay with MALME-3M melanoma was more than 100 µM throughout.

With `C=C1CC(C)(c2ccc(Nc3nc4ccccc4c4occc34)cc2)OC1=O` (stereo not drawn), the TGI in the assay on HOP-62 NSCLC is 34 µM; in the assay with CCRF-CEM leukemia it was 3.76 µM; in the assay on RXF 393 renal, 4.92 µM; in the assay on K-562 leukemia, more than 100 µM; in the assay with SR leukemia, 4.53 µM; in the assay on MCF7 breast it was more than 100 µM. Besides, the TGI with SF-539 CNS amounted to 4.5 µM; in the assay on KM12 colon, 34 µM; with MALME-3M melanoma, 43.4 µM.

With `Cc1nn(-c2cc(Cl)ccc2[N+](=O)[O-])c(C)c1Cl`, the TGI in the assay with HOP-62 NSCLC is more than 100 µM; with CCRF-CEM leukemia it was more than 100 µM; in the assay with RXF 393 renal, 76 µM; in the assay on K-562 leukemia it was more than 100 µM; with SR leukemia, more than 100 µM; in the assay with SW-620 colon, more than 100 µM. Moreover, the TGI with MCF7 breast, in the assay on SF-539 CNS, in the assay with KM12 colon and in the assay with MALME-3M melanoma was more than 100 µM throughout.

Take `CC1(C)CNC(=O)C2(C=NC(C)(C)CNC(=O)C3(C=N1)CCCO3)CCCO2` (stereo not drawn): the TGI in the assay with HOP-62 NSCLC, in the assay on CCRF-CEM leukemia, in the assay with RXF 393 renal, with K-562 leukemia, in the assay on SR leukemia and in the assay with SW-620 colon was more than 10 µM in each case. Further, the TGI with MCF7 breast, in the assay on SF-539 CNS, with KM12 colon and with MALME-3M melanoma was more than 10 µM throughout.

As for `CCOc1cc(-c2nc3ccccn3c2/N=C/c2cc(Br)ccc2O)ccc1O`, the TGI was 44.8 µM in the assay on HOP-62 NSCLC; more than 100 µM in the assay on CCRF-CEM leukemia; 32 µM in the assay on RXF 393 renal; more than 100 µM with K-562 leukemia; more than 100 µM in the assay on SR leukemia; more than 100 µM in the assay on SW-620 colon. Moreover, the TGI in the assay on MCF7 breast is 43.6 µM; in the assay on SF-539 CNS, more than 100 µM; in the assay on MALME-3M melanoma it was more than 100 µM.
